What all share (format): in vivo
The subject of experiment [1] is Solanum nigrum (SOLNI). The experiment in a line: Post-emergence biological efficacy, glasshouse, 500 or 1000 g/ha, evaluated after 13 days (100=total damage to plant; 0=no damage to plant). The conditions noted are these: Solanum nigrum, 312 h, rate 1,000 g/ha, read-out: Percentage damage caused to weed species, post-emergence, SOLNI. In short, it runs like this:
(§1)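 Damage is scored on pot-grown plants, sown in standard soil and sprayed after emergence, that were held post-treatment in a glasshouse (24/16° C. day/night, 14 hours light, 65% humidity).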

Experiment [2] relates to Amaranthus retroflexus (AMARE). The description is as above. The settings on record: Amaranthus retroflexus, 312 h, rate 1,000 g/ha, read-out: Percentage damage caused to weed species, post-emergence, AMARE. Summed up:
as §1

For experiment [3], the system named is Ipomoea hederaceae (IPOHE). The description is as above. The conditions noted are these: Ipomoea, 312 h, rate 1,000 g/ha, read-out: Percentage damage caused to weed species, post-emergence, IPOHE. Summed up:
as §1

Experiment [4] relates to Alopecurus myosuroides (ALOMY). Described as above. The conditions noted are these: Alopecurus myosuroides, 312 h, rate 1,000 g/ha, read-out: Percentage damage caused to weed species, post-emergence, ALOMY. In short, it runs like this: as §1
The subject of experiment [5] is Setaria faberi (SETFA). Described as above. The settings on record: Setaria faberi, 312 h, rate 1,000 g/ha, read-out: Percentage damage caused to weed species, post-emergence, SETFA. In short, it runs like this: as §1
For experiment [6], the system named is Echinochloa crusgaffi (ECHCG). The experiment is described as above. The conditions noted are these: Echinochloa, 312 h, rate 1,000 g/ha, read-out: Percentage damage caused to weed species, post-emergence, ECHCG. Summed up:
as §1

Experiment [7] deals with Solanum nigrum (SOLNI). The experiment in a line: Pre-emergence biological efficacy, glasshouse, 1000 g/ha, evaluated after 13 days (100=total damage to plant; 0=no damage to plant). The settings on record: Solanum nigrum, 312 h, rate 1,000 g/ha, read-out: Percentage damage caused to weed species, pre-emergence, SOLNI. In short, it runs like this: (§2)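 Test species are sown into pots of standard soil. Plants then grow in the glasshouse under controlled conditions (24/16° C. day/night, 14 hours light, 65% humidity) and receive water twice a day.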

Experiment [8] deals with Echinochloa crus-galli (ECHCG). Described as above. The conditions noted are these: Echinochloa crus-galli, 312 h, rate 1,000 g/ha, read-out: Percentage damage caused to weed species, pre-emergence, ECHCG. Summed up: as §2
Experiment [9] deals with Amaranthus retroflexus (AMARE). The experiment is described as above. The conditions noted are these: Amaranthus retroflexus, 312 h, rate 1,000 g/ha, read-out: Percentage damage caused to weed species, pre-emergence, AMARE. In short, it runs like this: as §2
Experiment [10] deals with Ipomoea hederaceae (IPOHE). The description is as above. The conditions noted are these: Ipomoea, 312 h, rate 1,000 g/ha, read-out: Percentage damage caused to weed species, pre-emergence, IPOHE. Summed up: as §2
The subject of experiment [11] is Alopecurus myosuroides (ALOMY). The description is as above. The settings on record: Alopecurus myosuroides, 312 h, rate 1,000 g/ha, read-out: Percentage damage caused to weed species, pre-emergence, ALOMY. Summed up: as §2
Experiment [12] has as its system Setaria faberi (SETFA). Described as above. The conditions noted are these: Setaria faberi, 312 h, rate 1,000 g/ha, read-out: Percentage damage caused to weed species, pre-emergence, SETFA. Summed up:
as §2

Take `COc1c(Cl)ccc(-c2cc3[nH]cc(C)c3c(C(=O)OC(C)C)n2)c1F` [Compound 22-78, 6-(4-Chloro-2-fluoro-3-methoxyphenyl)-4-isopropoxycarbonyl-3-methyl-1H-pyrrolo[3,2-c]pyridne]: the pest or weed control at 1000 g/ha in experiment [1] came to 60%; in experiment [2] it was 0%; in experiment [3], 70%; in experiment [4], 0%; in [5] it was 0%; in experiment [6], 0%. The pest or weed control at 1000 g/ha was 10% in experiment [7]; 0% in experiment [8]; 20% in experiment [9]; 0% in experiment [10]; 0% in experiment [11]; 0% in [12].
For `CCCCCC(C)OC(=O)c1nc(-c2ccc(Cl)c(OC)c2F)cc2[nH]cc(C)c12` (stereo not drawn) [Compound 22-79, 6-(4-Chloro-2-fluoro-3-methoxyphenyl)-4-(hept-2-yloxycarbonyl)-3-methyl-1H-pyrrolo[3,2-c]pyridine], the pest or weed control at 1000 g/ha turned out to be 70% in experiment [1]; 40% in experiment [2]; 40% in [3]; 10% in experiment [4]; 10% in experiment [5]; 0% in experiment [6]. The pest or weed control at 1000 g/ha in experiment [7] worked out at 50%; in experiment [8] it was 10%; in experiment [9], 10%; in [10] it was 30%; in experiment [11] it was 10%; in experiment [12], 20%.
For `C=CCOC(=O)c1nc(-c2ccc(Cl)c(OC)c2F)cc2[nH]cc(C)c12` [Compound 22-80, 6-(4-Chloro-2-fluoro-3-methoxyphenyl)-3-methyl-4-(prop-2-enyloxycarbonyl)-1H-pyrrolo[3,2-c]pyridine], the pest or weed control at 1000 g/ha was found to be 90% in experiment [1]; 70% in experiment [2]; 50% in experiment [3]; 10% in experiment [4]; 20% in experiment [5]; 10% in [6]. Further, the pest or weed control at 1000 g/ha in experiment [7] worked out at 60%; in [8], 20%; in experiment [9], 40%; in [10], 50%; in [11] it was 20%; in [12], 20%.
Take `CCOCCOC(=O)c1nc(-c2ccc(Cl)c(OC)c2F)cc2[nH]cc(C)c12` [Compound 22-82, 6-(4-Chloro-2-fluoro-3-methoxyphenyl)-4-[(2-ethoxy)-ethoxycarbonyl]-3-methyl-1H-pyrrolo[3,2-c]pyridine]: the pest or weed control at 1000 g/ha in experiment [1] amounted to 90%; in experiment [2], 80%; in experiment [3], 40%; in [4], 20%; in experiment [5] it was 40%; in experiment [6], 20%. The pest or weed control at 1000 g/ha in experiment [7] is 90%; in [8], 20%; in [9], 70%; in experiment [10], 90%; in experiment [11], 10%; in [12] it was 0%.
With `CCCCOCCOC(=O)c1nc(-c2ccc(Cl)c(OC)c2F)cc2[nH]cc(C)c12` [Compound 22-83], the pest or weed control at 1000 g/ha worked out at 90% in [1]; 90% in experiment [2]; 60% in [3]; 20% in experiment [4]; 40% in experiment [5]; 20% in experiment [6]. Moreover, the pest or weed control at 1000 g/ha in [7] is 80%; in [8] it was 20%; in experiment [9], 0%; in [10], 80%; in experiment [11] it was 20%; in experiment [12] it was 10%.
As for `CCCCOCC(C)OC(=O)c1nc(-c2ccc(Cl)c(OC)c2F)cc2[nH]cc(C)c12` (stereo not drawn) [Compound 22-84, 4-[(1-n-Butoxy)-prop-2-yloxycarbonyl]-6-(4-chloro-2-fluoro-3-methoxyphenyl)-3-methyl-1H-pyrrolo[3,2-c]pyridine], the pest or weed control at 1000 g/ha was 90% in [1]; 80% in experiment [2]; 40% in experiment [3]; 20% in experiment [4]; 30% in [5]; 20% in experiment [6]. Further, the pest or weed control at 1000 g/ha stood at 70% in experiment [7]; 20% in experiment [8]; 40% in experiment [9]; 80% in experiment [10]; 20% in experiment [11]; 10% in experiment [12].
On to `COCCOCCOC(=O)c1nc(-c2ccc(Cl)c(OC)c2F)cc2[nH]cc(C)c12` [Compound 22-85, 6-(4-Chloro-2-fluoro-3-methoxyphenyl)-4-{2-[(2-methoxy)-ethoxy]-ethoxycarbonyl}-3-methyl-1H-pyrrolo[3,2-c]pyridine], for which the pest or weed control at 1000 g/ha in experiment [1] was determined as 90%; in experiment [2], 90%; in experiment [3], 40%; in [4], 30%; in [5], 20%; in [6], 20%. Moreover, the pest or weed control at 1000 g/ha in [7] is 100%; in experiment [8], 10%; in experiment [9], 100%; in experiment [10], 80%; in [11] it was 10%; in experiment [12], 10%.
Regarding `COc1c(Cl)ccc(-c2cc3[nH]cc(C)c3c(C(=O)OCc3ccccc3)n2)c1F` [Compound 22-86, 4-Benzyloxycarbonyl-6-(4-chloro-2-fluoro-3-methoxyphenyl)-3-methyl-1H-pyrrolo[3,2-c]pyridine], the pest or weed control at 1000 g/ha in experiment [1] came to 70%; in experiment [2], 40%; in experiment [3], 40%; in [4] it was 10%; in experiment [5], 0%; in experiment [6], 10%. Besides, the pest or weed control at 1000 g/ha turned out to be 10% in experiment [7]; 0% in experiment [8]; 0% in experiment [9]; 0% in experiment [10]; 0% in experiment [11]; 0% in experiment [12].
As for `COc1c(Cl)ccc(-c2cc3[nH]cc(C)c3c(C(=O)OCc3ccco3)n2)c1F` [Compound 22-87, 6-(4-Chloro-2-fluoro-3-methoxyphenyl)-4-(2-furanyl-methoxycarbonyl)-3-methyl-1H-pyrrolo[3,2-c]pyridine], the pest or weed control at 1000 g/ha in experiment [1] came out at 90%; in [2] it was 80%; in [3], 70%; in [4], 20%; in [5], 40%; in experiment [6] it was 10%. For the same molecule, the pest or weed control at 1000 g/ha is 70% in experiment [7]; 10% in experiment [8]; 20% in [9]; 80% in experiment [10]; 10% in experiment [11]; 10% in [12].

The values are drawn from patent publication US20120202690A1, “HERBICIDAL COMPOUNDS” (SYNGENTA LIMITED, priority 2009, published 2012).
